Experimental data: US11547681B2, “N-acylethanolamide derivatives and uses thereof” (ELIEM THERAPEUTICS, INC., priority 2016, dated 2023)
Each block holds one compound with its values, some of them ahead of it.

Assay: in vitro
Settings: male; for Measured concentration of analyte PEA, 0 min / Measured concentration of analyte PEA, 10 min / Measured concentration of analyte PEA, 20 min / Measured concentration of analyte PEA, 30 min / Measured concentration of analyte PEA, 60 min / % Remaining of Initial, 0 min / % Remaining of Initial, 10 min / % Remaining of Initial, 20 min / % Remaining of Initial, 30 min / % Remaining of Initial, 60 min / Measured concentration of PEA (analyte) / % Remaining of Initial: 1 μM; for % Remaining of Initial, 0 min / % Remaining of Initial, 10 min / % Remaining of Initial, 20 min / % Remaining of Initial, 30 min / % Remaining of Initial, 60 min / microsomal CLint at 1 μM / half-life at 1 μM / % Remaining of Initial: microsomes
Protocol: (§1) Reaction mixture, minus cofactors, was prepared as described below. Test article was added into the reaction mixture at a final concentration of 1 μM. […] An aliquot of the reaction mixture (without cofactor) was equilibrated in a shaking water bath at 37° C. for 3 minutes. The reaction was initiated by the addition of cofactor, and the mixture was incubated in a shaking water bath at 37° C. Aliquots (100 μL) were withdrawn at 0, 10, 20, 30, and 60 minutes. Test article samples were immediately combined with 300 μL of ice-cold acetonitrile containing 1% formic acid. Control samples were immediately combined with 400 μL of ice-cold 50/50 acetonitrile (ACN)/dH2O containing 0.1% formic acid and internal standard to terminate the reaction. Samples were then mixed and centrifuged to precipitate proteins. Calibration standards were prepared in matched matrix. Samples and standards were assayed by LC-MS/MS using electrospray ionization for both dosed prodrug and expected drug (PEA). Analytical conditions are outlined in Appendix 8-1. Test article concentration at each time point was compared to test article concentration at time 0 to determine the percent remaining at each time point. Half-lives were calculated using GraphPad software, fitting to a single-phase exponential decay equation.
Reaction mixture, minus cofactors, was prepared as described below. Test article was added into the reaction mixture at a final concentration of 1 μM. […] An aliquot of the reaction mixture (without cofactor) was equilibrated in a shaking water bath at 37° C. for 5 minutes. Reaction was initiated by the addition of cofactor, and the mixture was incubated in a shaking water bath at 37° C. Aliquots (100 μL) were withdrawn at 0, 10, 20, 30, and 60 minutes. Test article samples were immediately combined with 300 μL of ice-cold acetonitrile containing 1% formic acid. Control samples were immediately combined with 400 μL of ice-cold 50/50 acetonitrile (ACN)/dH2O containing 0.1% formic acid and internal standard to terminate the reaction. Samples were then mixed and centrifuged to precipitate proteins. Calibration standards were prepared in matched matrix. Samples and standards were assayed by LC-MS/MS using electrospray ionization for both the dosed prodrug and the expected drug (PEA). Analytical conditions are outlined in Appendix 10-1. Test article concentration at each time point was compared to the test article concentration at time 0 to determine the percent remaining at each time point. Half-lives were calculated using GraphPad software, fitting to a single-phase exponential decay equation.
as §1, with “minutes. Reaction” for “minutes. The reaction”, “300 μL,” for “300 μL”, “Appendix 13-1.” for “Appendix 8-1.”
Reaction mixture, minus cofactors, was prepared as described below.

[1] = CD-1, mouse, calculated value in parentheses

Measured concentration of analyte PEA, 0 min (Beagle, dog, 0 min): 0.39 µM
Measured concentration of analyte PEA, 10 min (Beagle, dog, 10 min): 0.42 µM
Measured concentration of analyte PEA, 20 min (Beagle, dog, 20 min): 0.32 µM
Measured concentration of analyte PEA, 30 min (Beagle, dog, 30 min): 0.26 µM
Measured concentration of analyte PEA, 60 min (Beagle, dog, 60 min): 0.18 µM
% Remaining of Initial, 0 min (Beagle, dog, 0 h): 100%
% Remaining of Initial, 10 min (Beagle, dog, 10 min): <1.0%
% Remaining of Initial, 20 min (Beagle, dog, 20 min): <1.0%
% Remaining of Initial, 30 min (Beagle, dog, 0.5 h): <1.0%
% Remaining of Initial, 60 min (Beagle, dog, 1 h): <1.0%
microsomal CLint at 1 μM (Beagle, dog): > 1380 µL/min/mg
half-life at 1 μM (Beagle, dog, Half-life): < 1 min
Measured concentration of analyte PEA, 0 min (CD-1, mouse, 0 min): 0.52 µM
Measured concentration of analyte PEA, 10 min (CD-1, mouse, 10 min): 0.29 µM
Measured concentration of analyte PEA, 20 min (CD-1, mouse, 20 min): 0.18 µM
Measured concentration of analyte PEA, 30 min (CD-1, mouse, 30 min): 0.11 µM
Measured concentration of analyte PEA, 60 min (CD-1, mouse, 60 min): 0.036 µM
% Remaining of Initial, 0 min (CD-1, mouse, 0 h): 100%
% Remaining of Initial, 10 min (CD-1, mouse, 10 min): <1.0%
% Remaining of Initial, 20 min (CD-1, mouse, 20 min): <1.0%
% Remaining of Initial, 30 min (CD-1, mouse, 0.5 h): <1.0%
% Remaining of Initial, 60 min (CD-1, mouse, 1 h): <1.0%
microsomal CLint at 1 μM (CD-1, mouse): > 1380 µL/min/mg
half-life at 1 μM (CD-1, mouse, Half-life): < 1 min
Compound: CCCCCCCCCCCCCCCC(=O)NCCOC(=O)CCC(=O)OCC(O)CO (stereo not drawn) [Compound I-9]

Measured concentration of PEA (analyte) (Beagle, dog, 0 min): 0.053 µM
Measured concentration of PEA (analyte) (Beagle, dog, 10 min): 0.59 µM
Measured concentration of PEA (analyte) (Beagle, dog, 20 min): 0.48 µM
Measured concentration of PEA (analyte) (Beagle, dog, 30 min): 0.43 µM
Measured concentration of PEA (analyte) (Beagle, dog, 60 min): 0.20 µM
% Remaining of Initial (Beagle, dog, 0 h): 100%
% Remaining of Initial (Beagle, dog, 10 min): 4.4%
% Remaining of Initial (Beagle, dog, 20 min): 1.6%
% Remaining of Initial (Beagle, dog, 0.5 h): 1.4%
% Remaining of Initial (Beagle, dog, 1 h): 1.5%
microsomal CLint at 1 μM (Beagle, dog): > 139 µL/min/mg
microsomal CLint at 1 μM (Beagle, dog, calculated value in parentheses): 618 µL/min/mg
half-life at 1 μM (Beagle, dog, Half-life): < 10 min
half-life at 1 μM (Beagle, dog, Half-life, calculated value in parentheses): 2.2 min
Measured concentration of PEA (analyte) (CD-1, mouse, 0 min): 0.29 µM
Measured concentration of PEA (analyte) (CD-1, mouse, 10 min): 0.27 µM
Measured concentration of PEA (analyte) (CD-1, mouse, 20 min): 0.12 µM
Measured concentration of PEA (analyte) (CD-1, mouse, 30 min): 0.089 µM
Measured concentration of PEA (analyte) (CD-1, mouse, 60 min): 0.0093 µM
% Remaining of Initial (CD-1, mouse, 0 h): 100%
% Remaining of Initial (CD-1, mouse, 10 min): 7.6%
% Remaining of Initial (CD-1, mouse, 20 min): 3.0%
% Remaining of Initial (CD-1, mouse, 0.5 h): 2.1%
% Remaining of Initial (CD-1, mouse, 1 h): 1.8%
microsomal CLint at 1 μM (CD-1, mouse): > 139 µL/min/mg
microsomal CLint at 1 μM [1]: 503 µL/min/mg
half-life at 1 μM (CD-1, mouse, Half-life): < 10 min
half-life at 1 μM (CD-1, mouse, Half-life, calculated value in parentheses): 2.8 min
Compound: CCCCCCCCCCCCCCCC(=O)NCCOC(=O)CCC(=O)OC(COC(=O)CCC)COC(=O)CCC [Compound I-16]

Measured concentration of analyte PEA, 0 min (Beagle, dog, 0 min): 0.030 µM
Measured concentration of analyte PEA, 10 min (Beagle, dog, 10 min): 0.087 µM
Measured concentration of analyte PEA, 20 min (Beagle, dog, 20 min): 0.091 µM
Measured concentration of analyte PEA, 30 min (Beagle, dog, 30 min): 0.080 µM
Measured concentration of analyte PEA, 60 min (Beagle, dog, 60 min): 0.084 µM
% Remaining of Initial, 0 min (Beagle, dog, 0 h): 100%
% Remaining of Initial, 10 min (Beagle, dog, 10 min): 103%
% Remaining of Initial, 20 min (Beagle, dog, 20 min): 100%
% Remaining of Initial, 30 min (Beagle, dog, 0.5 h): 91%
% Remaining of Initial, 60 min (Beagle, dog, 1 h): 77%
microsomal CLint at 1 μM (Beagle, dog): < 23.1 µL/min/mg
half-life at 1 μM (Beagle, dog, Half-life): > 60 min
Measured concentration of analyte PEA, 0 min (CD-1, mouse, 0 min): 0.022 µM
Measured concentration of analyte PEA, 10 min (CD-1, mouse, 10 min): 0.055 µM
Measured concentration of analyte PEA, 20 min (CD-1, mouse, 20 min): 0.039 µM
Measured concentration of analyte PEA, 30 min (CD-1, mouse, 30 min): 0.041 µM
Measured concentration of analyte PEA, 60 min (CD-1, mouse, 60 min): 0.027 µM
% Remaining of Initial, 0 min (CD-1, mouse, 0 h): 100%
% Remaining of Initial, 10 min (CD-1, mouse, 10 min): 84%
% Remaining of Initial, 20 min (CD-1, mouse, 20 min): 74%
% Remaining of Initial, 30 min (CD-1, mouse, 0.5 h): 73%
% Remaining of Initial, 60 min (CD-1, mouse, 1 h): 61%
microsomal CLint at 1 μM (CD-1, mouse): < 23.1 µL/min/mg
microsomal CLint at 1 μM [1]: 16.4 µL/min/mg
half-life at 1 μM (CD-1, mouse, Calculated half-life (in parentheses)): 84 min
half-life at 1 μM (CD-1, mouse, Half-life): > 60 min
Compound: CCCCC/C=C\C/C=C\CCCCCCCC(=O)OCCNC(=O)CCCCCCCCCCCCCCC [Compound I-6]
